Reference: patent US6538037B2, “Methods for preparation and use of 1α,24(S)-dihydroxyvitamin D2” (Bone Care International, Inc., priority 1991, dated 2003)

How the values were obtained:
vitamin D receptor (VDR) = test: Vitamin D-inducible growth hormone production in transfected COS-1 cells; assay type: cell-based, Green monkey; details: for Total GH Production: averages of duplicate determinations
Description: The biological activity in vitro of chemically synthesized 1α,24(S)-(OH)2D2 and 1α,24(R)-(OH)2D2 was measured using a vitamin D-dependent transcriptional activation model system in which a vitamin D receptor (VDR)-expressing plasmid pSG5-hVDR1/3 and a plasmid p(CT4)^4TKGH containing a Growth Hormone (GH)-gene, under the control of a vitamin D-responsive element (VDRE) were co-transfected into Green monkey kidney, COS-1 cells. DNA's for these two vectors were supplied by Dr. Mark Haussler, Department of Biochemistry, University of Arizona, Tucson, Ariz.
Transfected cells were incubated with vitamin D metabolites and growth hormone production was measured.

[1] = Hypocalcemia and metabolic bone disease in chronic hemodialysis patients; assay type: in vivo, human; details: greater than 3.0 μg/day
Description: A twelve-month, double-blind, placebo-controlled clinical trial is conducted with thirty men and women with renal disease who are undergoing chronic hemodialysis. All patients enter an 8-week control period during which time they receive a maintenance dose of Vitamin D3 (400 IU/day). After this control period, the patients are randomized into two treatment groups: one group receives a constant dosage of 1α,24(S)-dihydroxyvitamin D2 (u.i.d.; a dosage greater than 3.0 μg/day) and the other group receives a matching placebo. Both treatment groups receive a maintenance dosage of Vitamin D3, maintain a normal intake of dietary calcium, and refrain from using calcium supplements. Efficacy is evaluated by pre- and post-treatment comparisons of the two patient groups with regard to (a) direct measurements of intestinal calcium absorption, (b) total body calcium retention, (c) radial and spinal bone mineral density, or (d) determinations of serum calcium. Safety is evaluated by regular monitoring of serum calcium.

[2] = system: human cancer cell lines BCA-1 or ZR-75-1 (breast) and COL-1 (colon); test: Antiproliferative activity in human cancer cell lines (thymidine incorporation); assay type: cell-based; details: dose-response studies
Description: Dose-response studies are conducted with 1α,24(S)-(OH)2D2 in a battery of human cancer cell lines. These cell lines include, but are not limited to, the following: BCA-1 or ZR-75-1 (breast) and COL-1 (colon), as described by Shieh, H. L. et al. Chem. Biol. Interact., vol. 81, pp. 35-55 (1982). In this study, appropriate solvents are used as negative controls.

## C=C1/C(=C\C=C2/CCC[C@]3(C)[C@@H]([C@H](C)/C=C/[C@@](C)(O)C(C)C)CC[C@@H]23)C[C@@H](O)C[C@@H]1O [1α,24(S)-(OH)2D2, 1α,24(S)-dihydroxyvitamin D2]
Vitamin D receptor (VDR); inducer 5 × 10^−9 M
  Net vitamin D-inducible GH-production: 1306 ng/mL
  Total GH Production: 1350 ng/mL
Vitamin D receptor (VDR); inducer 5 × 10^−10 M
  Net vitamin D-inducible GH-production: 381 ng/mL
  Total GH Production: 425 ng/mL
[1]; double-isotope technique
  intestinal calcium absorption: significantly increases intestinal calcium absorption
[1]; twelve months
  incidence of hypercalcemia: insignificant incidence of hypercalcemia
  serum calcium levels: normalized serum calcium levels
  total body calcium and radial and spinal bone densities relative to baseline: stable values for total body calcium, and stable radial and spinal bone densities
[2]
  antiproliferative activity, inhibition of thymidine incorporation: potent (and reversible) antiproliferative activity
